In ChEMBL document CHEMBL3046672, “Synthesis and bioevaluation of Schiff and Mannich bases of isatin derivatives with 4-amino-5-benzyl-2,4-dihydro-3H-1,2,4-triazole-3-thione” (2012):

System: Pseudomonas aeruginosa
Assay: Antibacterial activity against Pseudomonas aeruginosa at 50 ug/ml
Format: functional
Conditions: read-out: DIZ

`CCN(CC)CN1C(=O)/C(=N\n2c(Cc3ccccc3)n[nH]c2=S)c2cc(Br)ccc21` and `CCN(CC)CN1C(=O)/C(=N\n2c(Cc3ccccc3)n[nH]c2=S)c2cc(Cl)ccc21` are the same in zone of inhibition at 50 µg/mL: 9 mm for the first, 9 mm for the second.

First: O=C1/C(=N\n2c(Cc3ccccc3)n[nH]c2=S)c2cc(Br)ccc2N1CN1CCCCC1
Second: O=C1/C(=N\n2c(Cc3ccccc3)n[nH]c2=S)c2cc(Cl)ccc2N1CN1CCOCC1
The zone of inhibition at 50 µg/mL of the first is higher: 10 mm for the first, 9 mm for the second.

System: Pseudomonas aeruginosa
Assay: Antibacterial activity against Pseudomonas aeruginosa at 100 ug/ml
Format: functional
Conditions: read-out: DIZ

First: CCN(CC)CN1C(=O)/C(=N\n2c(Cc3ccccc3)n[nH]c2=S)c2cc(Br)ccc21
Second: CCN(CC)CN1C(=O)/C(=N\n2c(Cc3ccccc3)n[nH]c2=S)c2cc(Cl)ccc21
The zone of inhibition at 100 µg/mL of the first is lower: 14 mm for the first, 16 mm for the second.

`O=C1/C(=N\n2c(Cc3ccccc3)n[nH]c2=S)c2cc(Br)ccc2N1CN1CCCCC1` and `O=C1/C(=N\n2c(Cc3ccccc3)n[nH]c2=S)c2cc(Cl)ccc2N1CN1CCOCC1` are the same in zone of inhibition at 100 µg/mL: 15 mm for the first, 15 mm for the second.

System: Pseudomonas aeruginosa
Assay: Antibacterial activity against Pseudomonas aeruginosa at 200 ug/ml
Format: functional
Conditions: read-out: DIZ

First: CCN(CC)CN1C(=O)/C(=N\n2c(Cc3ccccc3)n[nH]c2=S)c2cc(Br)ccc21
Second: CCN(CC)CN1C(=O)/C(=N\n2c(Cc3ccccc3)n[nH]c2=S)c2cc(Cl)ccc21
The zone of inhibition at 200 µg/mL of the first is higher: 23 mm for the first, 22 mm for the second.

Compared with `O=C1/C(=N\n2c(Cc3ccccc3)n[nH]c2=S)c2cc(Br)ccc2N1CN1CCCCC1`, `O=C1/C(=N\n2c(Cc3ccccc3)n[nH]c2=S)c2cc(Cl)ccc2N1CN1CCOCC1` is higher in zone of inhibition at 200 µg/mL: 22 mm for the first, 25 mm for the second.

System: Escherichia coli
Assay: Antibacterial activity against Escherichia coli at 50 ug/ml
Format: functional
Conditions: read-out: DIZ

Going from `CCN(CC)CN1C(=O)/C(=N\n2c(Cc3ccccc3)n[nH]c2=S)c2cc(Br)ccc21` to `CCN(CC)CN1C(=O)/C(=N\n2c(Cc3ccccc3)n[nH]c2=S)c2cc(Cl)ccc21`, the zone of inhibition at 50 µg/mL rises from 10 mm to 11 mm.

Going from `O=C1/C(=N\n2c(Cc3ccccc3)n[nH]c2=S)c2cc(Br)ccc2N1CN1CCCCC1` to `O=C1/C(=N\n2c(Cc3ccccc3)n[nH]c2=S)c2cc(Cl)ccc2N1CN1CCOCC1`, the zone of inhibition at 50 µg/mL rises from 10 mm to 11 mm.

System: Escherichia coli
Assay: Antibacterial activity against Escherichia coli at 100 ug/ml
Format: functional
Conditions: read-out: DIZ

Going from `CCN(CC)CN1C(=O)/C(=N\n2c(Cc3ccccc3)n[nH]c2=S)c2cc(Br)ccc21` to `CCN(CC)CN1C(=O)/C(=N\n2c(Cc3ccccc3)n[nH]c2=S)c2cc(Cl)ccc21`, the zone of inhibition at 100 µg/mL rises from 16 mm to 17 mm.

`O=C1/C(=N\n2c(Cc3ccccc3)n[nH]c2=S)c2cc(Br)ccc2N1CN1CCCCC1` and `O=C1/C(=N\n2c(Cc3ccccc3)n[nH]c2=S)c2cc(Cl)ccc2N1CN1CCOCC1` are the same in zone of inhibition at 100 µg/mL: 16 mm for the first, 16 mm for the second.

System: Escherichia coli
Assay: Antibacterial activity against Escherichia coli at 200 ug/ml
Format: functional
Conditions: read-out: DIZ

Going from `CCN(CC)CN1C(=O)/C(=N\n2c(Cc3ccccc3)n[nH]c2=S)c2cc(Br)ccc21` to `CCN(CC)CN1C(=O)/C(=N\n2c(Cc3ccccc3)n[nH]c2=S)c2cc(Cl)ccc21`, the zone of inhibition at 200 µg/mL rises from 26 mm to 27 mm.

`O=C1/C(=N\n2c(Cc3ccccc3)n[nH]c2=S)c2cc(Br)ccc2N1CN1CCCCC1` and `O=C1/C(=N\n2c(Cc3ccccc3)n[nH]c2=S)c2cc(Cl)ccc2N1CN1CCOCC1` are the same in zone of inhibition at 200 µg/mL: 25 mm for the first, 25 mm for the second.

System: Staphylococcus aureus
Assay: Antibacterial activity against Staphylococcus aureus at 200 ug/ml
Format: functional
Conditions: read-out: DIZ

Compared with `CCN(CC)CN1C(=O)/C(=N\n2c(Cc3ccccc3)n[nH]c2=S)c2cc(Br)ccc21`, `CCN(CC)CN1C(=O)/C(=N\n2c(Cc3ccccc3)n[nH]c2=S)c2cc(Cl)ccc21` is higher in zone of inhibition at 200 µg/mL: 20 mm for the first, 21 mm for the second.

Compared with `O=C1/C(=N\n2c(Cc3ccccc3)n[nH]c2=S)c2cc(Br)ccc2N1CN1CCCCC1`, `O=C1/C(=N\n2c(Cc3ccccc3)n[nH]c2=S)c2cc(Cl)ccc2N1CN1CCOCC1` is lower in zone of inhibition at 200 µg/mL: 21 mm for the first, 20 mm for the second.

System: Staphylococcus aureus
Assay: Antibacterial activity against Staphylococcus aureus at 100 ug/ml
Format: functional
Conditions: read-out: DIZ

First: CCN(CC)CN1C(=O)/C(=N\n2c(Cc3ccccc3)n[nH]c2=S)c2cc(Br)ccc21
Second: CCN(CC)CN1C(=O)/C(=N\n2c(Cc3ccccc3)n[nH]c2=S)c2cc(Cl)ccc21
The zone of inhibition at 100 µg/mL of the first is higher: 14 mm for the first, 12 mm for the second.

`O=C1/C(=N\n2c(Cc3ccccc3)n[nH]c2=S)c2cc(Br)ccc2N1CN1CCCCC1` and `O=C1/C(=N\n2c(Cc3ccccc3)n[nH]c2=S)c2cc(Cl)ccc2N1CN1CCOCC1` are the same in zone of inhibition at 100 µg/mL: 14 mm for the first, 14 mm for the second.

System: Aspergillus niger
Assay: Antifungal activity against Aspergillus niger at 200 ug/ml
Format: functional
Conditions: read-out: DIZ

Compared with `CCN(CC)CN1C(=O)/C(=N\n2c(Cc3ccccc3)n[nH]c2=S)c2cc(Br)ccc21`, `CCN(CC)CN1C(=O)/C(=N\n2c(Cc3ccccc3)n[nH]c2=S)c2cc(Cl)ccc21` is lower in zone of inhibition at 200 µg/mL: 13 mm for the first, 12 mm for the second.

Going from `O=C1/C(=N\n2c(Cc3ccccc3)n[nH]c2=S)c2cc(Br)ccc2N1CN1CCCCC1` to `O=C1/C(=N\n2c(Cc3ccccc3)n[nH]c2=S)c2cc(Cl)ccc2N1CN1CCOCC1`, the zone of inhibition at 200 µg/mL rises from 15 mm to 17 mm.

System: Staphylococcus aureus
Assay: Antibacterial activity against Staphylococcus aureus at 50 ug/ml
Format: functional
Conditions: read-out: DIZ

`CCN(CC)CN1C(=O)/C(=N\n2c(Cc3ccccc3)n[nH]c2=S)c2cc(Br)ccc21` and `CCN(CC)CN1C(=O)/C(=N\n2c(Cc3ccccc3)n[nH]c2=S)c2cc(Cl)ccc21` are the same in zone of inhibition at 50 µg/mL: 9 mm for the first, 9 mm for the second.

`O=C1/C(=N\n2c(Cc3ccccc3)n[nH]c2=S)c2cc(Br)ccc2N1CN1CCCCC1` and `O=C1/C(=N\n2c(Cc3ccccc3)n[nH]c2=S)c2cc(Cl)ccc2N1CN1CCOCC1` are the same in zone of inhibition at 50 µg/mL: 9 mm for the first, 9 mm for the second.

System: Bacillus subtilis
Assay: Antibacterial activity against Bacillus subtilis at 200 ug/ml
Format: functional
Conditions: read-out: DIZ

`CCN(CC)CN1C(=O)/C(=N\n2c(Cc3ccccc3)n[nH]c2=S)c2cc(Br)ccc21` and `CCN(CC)CN1C(=O)/C(=N\n2c(Cc3ccccc3)n[nH]c2=S)c2cc(Cl)ccc21` are the same in zone of inhibition at 200 µg/mL: 20 mm for the first, 20 mm for the second.

Going from `O=C1/C(=N\n2c(Cc3ccccc3)n[nH]c2=S)c2cc(Br)ccc2N1CN1CCCCC1` to `O=C1/C(=N\n2c(Cc3ccccc3)n[nH]c2=S)c2cc(Cl)ccc2N1CN1CCOCC1`, the zone of inhibition at 200 µg/mL rises from 20 mm to 22 mm.

System: Bacillus subtilis
Assay: Antibacterial activity against Bacillus subtilis at 100 ug/ml
Format: functional
Conditions: read-out: DIZ

Going from `CCN(CC)CN1C(=O)/C(=N\n2c(Cc3ccccc3)n[nH]c2=S)c2cc(Br)ccc21` to `CCN(CC)CN1C(=O)/C(=N\n2c(Cc3ccccc3)n[nH]c2=S)c2cc(Cl)ccc21`, the zone of inhibition at 100 µg/mL rises from 13 mm to 14 mm.

First: O=C1/C(=N\n2c(Cc3ccccc3)n[nH]c2=S)c2cc(Br)ccc2N1CN1CCCCC1
Second: O=C1/C(=N\n2c(Cc3ccccc3)n[nH]c2=S)c2cc(Cl)ccc2N1CN1CCOCC1
The zone of inhibition at 100 µg/mL of the first is higher: 15 mm for the first, 13 mm for the second.

System: Bacillus subtilis
Assay: Antibacterial activity against Bacillus subtilis at 50 ug/ml
Format: functional
Conditions: read-out: DIZ

`CCN(CC)CN1C(=O)/C(=N\n2c(Cc3ccccc3)n[nH]c2=S)c2cc(Br)ccc21` and `CCN(CC)CN1C(=O)/C(=N\n2c(Cc3ccccc3)n[nH]c2=S)c2cc(Cl)ccc21` are the same in zone of inhibition at 50 µg/mL: 9 mm for the first, 9 mm for the second.

Compared with `O=C1/C(=N\n2c(Cc3ccccc3)n[nH]c2=S)c2cc(Br)ccc2N1CN1CCCCC1`, `O=C1/C(=N\n2c(Cc3ccccc3)n[nH]c2=S)c2cc(Cl)ccc2N1CN1CCOCC1` is lower in zone of inhibition at 50 µg/mL: 10 mm for the first, 9 mm for the second.

System: Candida albicans
Assay: Antifungal activity against Candida albicans at 200 ug/ml
Format: functional
Conditions: read-out: DIZ

First: CCN(CC)CN1C(=O)/C(=N\n2c(Cc3ccccc3)n[nH]c2=S)c2cc(Br)ccc21
Second: CCN(CC)CN1C(=O)/C(=N\n2c(Cc3ccccc3)n[nH]c2=S)c2cc(Cl)ccc21
The zone of inhibition at 200 µg/mL of the first is higher: 16 mm for the first, 15 mm for the second.

First: O=C1/C(=N\n2c(Cc3ccccc3)n[nH]c2=S)c2cc(Br)ccc2N1CN1CCCCC1
Second: O=C1/C(=N\n2c(Cc3ccccc3)n[nH]c2=S)c2cc(Cl)ccc2N1CN1CCOCC1
The zone of inhibition at 200 µg/mL of the first is lower: 16 mm for the first, 17 mm for the second.

System: Candida albicans
Assay: Antifungal activity against Candida albicans at 100 ug/ml
Format: functional
Conditions: read-out: DIZ

First: CCN(CC)CN1C(=O)/C(=N\n2c(Cc3ccccc3)n[nH]c2=S)c2cc(Br)ccc21
Second: CCN(CC)CN1C(=O)/C(=N\n2c(Cc3ccccc3)n[nH]c2=S)c2cc(Cl)ccc21
The zone of inhibition at 100 µg/mL of the first is higher: 10 mm for the first, 9 mm for the second.

`O=C1/C(=N\n2c(Cc3ccccc3)n[nH]c2=S)c2cc(Br)ccc2N1CN1CCCCC1` and `O=C1/C(=N\n2c(Cc3ccccc3)n[nH]c2=S)c2cc(Cl)ccc2N1CN1CCOCC1` are the same in zone of inhibition at 100 µg/mL: 10 mm for the first, 10 mm for the second.

System: Aspergillus niger
Assay: Antifungal activity against Aspergillus niger at 100 ug/ml
Format: functional
Conditions: read-out: DIZ

`CCN(CC)CN1C(=O)/C(=N\n2c(Cc3ccccc3)n[nH]c2=S)c2cc(Br)ccc21` and `CCN(CC)CN1C(=O)/C(=N\n2c(Cc3ccccc3)n[nH]c2=S)c2cc(Cl)ccc21` are the same in zone of inhibition at 100 µg/mL: 9 mm for the first, 9 mm for the second.

`O=C1/C(=N\n2c(Cc3ccccc3)n[nH]c2=S)c2cc(Br)ccc2N1CN1CCCCC1` and `O=C1/C(=N\n2c(Cc3ccccc3)n[nH]c2=S)c2cc(Cl)ccc2N1CN1CCOCC1` are the same in zone of inhibition at 100 µg/mL: 9 mm for the first, 9 mm for the second.
